Measurements taken from patent US9539256B2 (THE BOARD OF REGENTS OF THE UNIVERSITY OF TEXAS SYSTEM, priority 2012, dated 2017).
Entries after “also recorded” stand apart in the source; their conditions may differ.

How the values were obtained:
[1] = test system: AsPC-1, BxPC-3, and PANC-1; assay: Transwell migration/invasion assay; type: cell-based; conditions: pretreated with 10.0 μM for 24 hours; AsPC-1, BxPC-3, PANC-1
Procedure: The top chamber of 8 micron inserts (Costar Inc) were coated with BD Matrigel™ Basement Membrane Matrix ([…]). Cells (2×10^5) pretreated with 10.0 μM of ESI-09 for 24 hours were added to the top chamber of the inserts in serum free RPMI medium containing 0.25% BSA. The bottom chamber was filled with 600.0 μL of RPMI containing 10% FBS and 10.0 μM ESI-09. The cells were then incubated at 37° C. in 5% CO2 for 20 hours. Cells were removed from the top chamber and migrated cells were fixed in methanol and stained with crystal violet. The number of migrated cells were counted from four different fields.

EPAC1 [2] = molecular target: T1, EPAC1 (Homo sapiens, UniProt O95398); assay: Phosphorylation of Akt in HEK293/EPAC1 cells; type: cell-based; conditions: 10 μM for 5 min before 007-AM
T1 sequence (O95398 1-923): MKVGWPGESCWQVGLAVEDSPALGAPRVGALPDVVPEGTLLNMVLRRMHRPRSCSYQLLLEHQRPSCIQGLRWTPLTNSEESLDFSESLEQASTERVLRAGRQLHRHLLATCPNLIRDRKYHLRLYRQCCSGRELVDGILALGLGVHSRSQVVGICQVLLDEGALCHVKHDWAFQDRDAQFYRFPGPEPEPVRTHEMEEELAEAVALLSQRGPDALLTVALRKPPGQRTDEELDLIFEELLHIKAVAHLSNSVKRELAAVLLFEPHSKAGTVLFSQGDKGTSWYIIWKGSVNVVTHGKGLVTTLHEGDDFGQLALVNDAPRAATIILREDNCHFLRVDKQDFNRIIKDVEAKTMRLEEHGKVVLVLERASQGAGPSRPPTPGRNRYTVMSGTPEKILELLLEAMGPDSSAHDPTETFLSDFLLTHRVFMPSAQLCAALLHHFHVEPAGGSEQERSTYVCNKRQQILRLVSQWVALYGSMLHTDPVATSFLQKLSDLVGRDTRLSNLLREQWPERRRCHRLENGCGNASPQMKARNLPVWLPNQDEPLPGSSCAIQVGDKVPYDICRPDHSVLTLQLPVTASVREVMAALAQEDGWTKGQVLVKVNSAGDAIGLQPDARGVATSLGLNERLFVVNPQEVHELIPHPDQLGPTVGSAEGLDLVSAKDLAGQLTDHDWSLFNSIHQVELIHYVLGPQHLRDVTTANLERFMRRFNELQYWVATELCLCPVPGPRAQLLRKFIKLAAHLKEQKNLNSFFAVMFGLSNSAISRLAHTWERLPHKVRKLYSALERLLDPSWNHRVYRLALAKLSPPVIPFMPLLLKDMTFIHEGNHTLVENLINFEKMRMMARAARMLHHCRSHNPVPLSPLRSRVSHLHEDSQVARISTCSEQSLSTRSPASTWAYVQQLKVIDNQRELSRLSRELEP
Procedure: (§1) FIG. 10. Effect of ESI-09 on EPAC-mediated PKB phosphorylation in HEK293/EPAC1, HEK293/EPAC2, and human vascular smooth muscle (hVSMC) cells. Serum-starved HEK293/EPAC1, HEK293/EPAC2, and hVSMC cells with or without pretreatment of […] ESI-09 were stimulated with 10 μM 007-AM. Cell lysates were subjected to Western blot analysis as described under “Experimental Procedures” using anti-phospho-Ser473-specific (PKB-P473) and anti-phospho-Thr308-specific (PKB-P308) PKB antibodies.
(§2) Cellular proteins from cell lysates treated with various reagents were separated by SDS-PAGE and transferred to polyvinylidene difluoride membrane. The levels of Akt activation were probed by immuno-blotting analyses using anti-phosphate T308 PKB antibodies (1:1000) and anti-phosphate S473 PKB antibodies (1:1000). At least three independent experiments were performed for each Western blot.

[3] = test system: OVA-specific IgG1 antibodies; assay: Oral ovalbumin immunization, serum OVA-IgG1; type: in vivo; conditions: WT mice, oral gavage 50 mg/kg, versus vehicle
EPAC1 [4] = molecular target: T1, EPAC1; assay: Rap1-GDP exchange (GEF) activity assay, EPAC1
EPAC1 [5] = molecular target: T1, EPAC1; assay: Rap1 activation assay in HEK293/EPAC1 cells; type: cell-based
Procedure: (§3) FIGS. 9A-9B. Effects of EPAC2-specific antagonists on 007-AM-mediated cellular activation of Rap1. […] GTP-bound Rap1 (Rap1GTP) obtained by a Ral-GDSRBD-GST pull-down assay and total cellular Rap1 were detected by immunoblotting with Rap1-specific antibody. […] At test was used to determine statistical significance (*P<0.05).
(§4) Cellular activation of Rap1 was determined by pull-down of lysates derived from human vascular smooth muscle cell and HEK293 cells stably expressing EPAC1 or EPAC2 employing Ral-GDS-RBD-GST affinity beads as described earlier (Mei and Cheng (2005) Molecular Biosystems 1: 325-331).

EPAC2 [6] = molecular target: T2, EPAC2 (Homo sapiens, UniProt Q8WZA2); assay: Rap1 activation assay in HEK293/EPAC2 cells; type: cell-based; conditions: HEK293/EPAC2 cells; pre-treatment with 10 μM compound
T2 construct: HEK293 cells that ectopically express full-length EPAC2 proteins; expressed in transfected cells; host or cells: HEK293
T2 sequence (Q8WZA2 whole entry, species assumed): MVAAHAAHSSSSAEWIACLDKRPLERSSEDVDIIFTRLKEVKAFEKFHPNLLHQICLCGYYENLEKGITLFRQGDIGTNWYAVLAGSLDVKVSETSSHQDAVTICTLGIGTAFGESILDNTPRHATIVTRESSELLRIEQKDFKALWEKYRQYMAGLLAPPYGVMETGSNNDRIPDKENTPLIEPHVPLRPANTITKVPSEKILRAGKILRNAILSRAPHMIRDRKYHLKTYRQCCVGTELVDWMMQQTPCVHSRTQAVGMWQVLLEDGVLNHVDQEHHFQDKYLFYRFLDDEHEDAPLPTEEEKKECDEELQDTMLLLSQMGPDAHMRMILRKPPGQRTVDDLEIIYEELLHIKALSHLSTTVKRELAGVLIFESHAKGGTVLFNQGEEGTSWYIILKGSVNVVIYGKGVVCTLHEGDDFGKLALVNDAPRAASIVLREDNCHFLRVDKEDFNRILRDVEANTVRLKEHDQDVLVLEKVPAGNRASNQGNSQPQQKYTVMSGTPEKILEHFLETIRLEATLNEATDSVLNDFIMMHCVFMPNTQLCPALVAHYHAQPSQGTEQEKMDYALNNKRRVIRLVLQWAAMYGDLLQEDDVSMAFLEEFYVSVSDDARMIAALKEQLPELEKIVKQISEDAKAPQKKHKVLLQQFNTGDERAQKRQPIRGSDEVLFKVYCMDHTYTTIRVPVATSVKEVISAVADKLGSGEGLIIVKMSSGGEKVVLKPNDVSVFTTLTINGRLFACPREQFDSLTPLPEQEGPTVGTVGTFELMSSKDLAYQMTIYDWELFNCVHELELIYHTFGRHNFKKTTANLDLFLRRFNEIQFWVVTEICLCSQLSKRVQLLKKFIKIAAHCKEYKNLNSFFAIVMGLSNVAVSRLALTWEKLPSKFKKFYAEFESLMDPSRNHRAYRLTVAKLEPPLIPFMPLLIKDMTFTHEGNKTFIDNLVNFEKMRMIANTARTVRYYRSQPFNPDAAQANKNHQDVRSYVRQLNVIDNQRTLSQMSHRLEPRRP
Procedure: as §3, §4

[7] = test system: AsPC-1, BxPC-3, and PANC-1; assay: Wound healing assay; type: cell-based; conditions: 10.0 μM; AsPC-1, BxPC-3, PANC-1
Procedure: Cells were grown to 95-100% confluency before a scratch wound was made. The medium was changed to RPMI 10% FBS containing 10.0 μM ESI-09. The cells were then incubated at 37° C. in 5% CO2. The wound was imaged at 0 hours and 22 hours after changing the medium. Healing rate was determined by calculating the percentage of wound closure normalized to a 1.0 mm wound according to the following equation: % wound closure=(distance between the edges of the wound before treatment with ES-09−distance between the edges of the wound 22 hours post treatment with ES-09)/1.0×100.

EPAC2 [8] = molecular target: T2, EPAC2; assay: Phosphorylation of Akt in HEK293/EPAC2 cells; type: cell-based; conditions: 10 μM for 5 min before 007-AM
Procedure: as §1, §2

## CC(C)(C)c1cc(C(=O)C(C#N)=NNc2cccc(Cl)c2)no1 [ESI-09, 3-(5-Tert-Butyl-Isoxazol-3-Yl)-2-[(3-Chlorophenyl)-Hydrazono]-3-Oxo-Propionitrile]
[1]
  cell migration, trans-well migration/invasion: significant decrease; also recorded: significantly (P<0.05) decreased
EPAC1 [2]
  EPAC1-mediated Akt phosphorylation (T308 and S473): completely blocked
[3]
  serum OVA-specific IgG1 antibodies: significantly higher; also recorded: increases
EPAC1 [4]
  IC50: 3.2 µM
EPAC1 [5]
  007-AM induced Rap1 activation: effective
EPAC2 [6]
  007-AM induced Rap1 activation: significant reduction
[7]
  cell migration, wound healing: significant decrease; also recorded: significantly (P<0.05) decreased
EPAC2 [8]
  EPAC2-mediated Akt phosphorylation (T308 and S473): completely blocked
